This experiment has as its system acetylated histone H3 in HeLa cells. Nature of the experiment: Immunofluorescence analysis using acetylated H3 antibody. It counts as cell-based. The note with it: CTPB alone at 300 μM, compared with untreated cells. From the text:
FIG. 3. Small molecule HAT activator binds to the CSP and induces hyperacetylation within HeLa cells. (a) X-ray crystal structure of CTPB showing the ball and stick model view of the compound. The color coding of the atoms is as follows: light blue, carbon; white, hydrogen; red, oxygen; grey, fluorine; green, chlorine; dark blue, nitrogen. (b) SEM image of the carbon spheres, adsorbed with CTPB (Panel I). A specific area of the sample was excited with the electron beam of energy suitable for the constituent elements to emit the X-rays of their characteristic wavelength. […] (c)-(d) Top panel represents the confocal image of HeLa cells, Bottom panel represents intensity profile of the image arising from Hoechst stained nuclei shown as blue peak, Fluorescence intensity of CSP is shown as light green peak, Fluorescence intensity from Alexa 488 fluor antibody is shown as dark green peak. HeLa cells, (3c, I) untreated, stained with Hoechst dye; (3c, II) treated with CSP, where carbon sphere fluorescence always overlap with the nuclear region, showing that the nanosphere localized within the nucleus specifically; (3c, III) untreated, probed with antibody against acetylated histone H3; (3c, IV) treated with HAT activator CTPB (300 μM), probed with antibody against acetylated histone H3. […]

In the case of `CCOc1ccccc1C(=O)Nc1ccc(Cl)c(C(F)(F)F)c1` [CTPB, 4-chloro-3-trifluoromethylphenyl-2-ethoxybenzamide], the “acetylation level (acetylated H3 immunofluorescence), result in words” value is listed as “did not show any difference”.

Source of the values: patent US9034387B2, “Intrinsically fluorescent carbon nanospheres and a process thereof” (priority 2007, dated 2015).
